# Results reported in ChEMBL document CHEMBL1123416, “Imidazo[2,1-b]benzothiazoles. 2. New immunosuppressive agents” (1986).
# Tests used:
# Format in all cases: functional
# Mus musculus [1] = assay: Significant suppressive activity of delayed type hypersensitivity (DTH) with out inhibition of humoral immunity in mice by oral administration at dose of 50 mg/kg
# Mus musculus [2] = assay: Significant suppressive activity of delayed type hypersensitivity (DTH) with out inhibition of humoral immunity in mice by oral administration at dose of 400 mg/kg
# Mus musculus [3] = assay: Compound was tested for its significant suppressive activity of delayed type hypersensitivity (DTH) with out inhibition of humoral immunity in mice by oral administration at dose of 100 mg/kg
# Mus musculus [4] = assay: Compound was tested for its significant suppressive activity of delayed type hypersensitivity (DTH) with out inhibition of humoral immunity in mice by oral administration at dose of 12.5 mg/kg
# Mus musculus [5] = assay: Compound was tested for its significant suppressive activity of delayed type hypersensitivity (DTH) with out inhibition of humoral immunity in mice by oral administration at dose of 200 mg/kg
# Mus musculus [6] = assay: Compound was tested for its significant suppressive activity of delayed type hypersensitivity (DTH) with out inhibition of humoral immunity in mice by oral administration at dose of 25 mg/kg
# Mus musculus [7] = assay: The compound was tested for its significant suppressive activity of delayed type hypersensitivity (DTH) with out inhibition of humoral immunity in mice by oral administration at dose of 400 mg/kg
Structure (SMILES),Increase in ear thickness (Mus musculus [1]),inhibition in vivo at 50 mg/kg (Mus musculus [1]) [%],Increase in ear thickness (Mus musculus [2]),inhibition in vivo at 400 mg/kg (Mus musculus [2]) [%],other results
Cc1ccc(-c2cn3c(n2)sc2ccccc23)cc1O,3.3 1/100mm,37.7,3.2 1/100mm,39.6,–
CN(C)c1cccc(-c2cn3c(n2)sc2ccccc23)c1,–,–,–,–,Increase in ear thickness (Mus musculus [3]): 3.2 1/100mm; inhibition in vivo at 100 mg/kg (Mus musculus [3]): 21%; Increase in ear thickness (Mus musculus [4]): 3.4 1/100mm; inhibition in vivo at 12.5 mg/kg (Mus musculus [4]): 17%
CS(=O)(=O)Nc1cccc(-c2cn3c(n2)sc2ccccc23)c1,3.8 1/100mm,28.3,3.6 1/100mm,32.1,–
COC(=O)c1cc(-c2cn3c(n2)sc2ccccc23)ccc1O,4.2 1/100mm,-5,2.3 1/100mm,42.5,–
CC(=O)Nc1ccc(-c2cn3c(n2)sc2ccccc23)cc1,3.6 1/100mm,–,–,–,Increase in ear thickness (Mus musculus [5]): 3 1/100mm; inhibition in vivo at 200 mg/kg (Mus musculus [5]): 9.1%; inhibition in vivo at 25 mg/kg (Mus musculus [6]): -9.1%
O=[N+]([O-])c1cccc(-c2cn3c(n2)sc2ccccc23)c1,3.2 1/100mm,39.6,2.1 1/100mm,60.4,–
Oc1cccc(-c2cn3c(n2)sc2cc(O)ccc23)c1,2.3 1/100mm,43.9,2.4 1/100mm,41.5,–
Oc1ccccc1-c1cn2c(n1)sc1ccccc12,3.5 1/100mm,12.5,1.4 1/100mm,65,–
Oc1ccc(-c2cn3c(n2)sc2ccccc23)cc1,3.4 1/100mm,44.2,3.6 1/100mm,40.9,–
N#Cc1cccc(-c2cn3c(n2)sc2ccccc23)c1,3 1/100mm,6.3,4.7 1/100mm,-46.9,–
Brc1ccc(-c2cn3c(n2)sc2ccccc23)cc1,5.5 1/100mm,-5.8,4.9 1/100mm,5.8,–
Oc1cccc(-c2cn3c(nc4ccccc43)s2)c1,2.3 1/100mm,43.9,3.8 1/100mm,7.3,–
Ic1ccc(-c2cn3c(n2)sc2ccccc23)cc1,6.4 1/100mm,-23.1,5.3 1/100mm,-1.9,–
Cc1ccc2c(c1)sc1nc(-c3cccc(O)c3)cn12,4.5 1/100mm,-12.5,3.8 1/100mm,5,–
Oc1ccc(-c2cn3c(n2)sc2ccccc23)cc1O,–,–,–,–,Increase in ear thickness (Mus musculus [5]): 3.1 1/100mm; inhibition in vivo at 200 mg/kg (Mus musculus [5]): 3.1%; Increase in ear thickness (Mus musculus [6]): 2.5 1/100mm; inhibition in vivo at 25 mg/kg (Mus musculus [6]): 21.9%
COc1ccccc1-c1cn2c(n1)sc1ccccc12,5.5 1/100mm,3.5,4.7 1/100mm,17.5,–
CC(=O)Nc1cccc(-c2cn3c(n2)sc2ccccc23)c1,3.5 1/100mm,34,3.9 1/100mm,26,–
Cc1ccc(-c2cn3c(n2)sc2ccccc23)cc1S(C)(=O)=O,1.9 1/100mm,53.7,4.9 1/100mm,3.9,–
O=[N+]([O-])c1cc(-c2cn3c(n2)sc2ccccc23)ccc1O,4.1 1/100mm,22.6,4.2 1/100mm,20.8,–
COc1cccc(-c2cn3c(n2)sc2ccccc23)c1,2.8 1/100mm,12.5,2.1 1/100mm,34.4,–
Cc1c(-c2cccc(O)c2)nc2sc3ccccc3n12,3.9 1/100mm,9.3,3.6 1/100mm,16.3,–
c1ccc(-c2cn3c(n2)sc2ccccc23)cc1,6 1/100mm,-3.4,5.7 1/100mm,1.7,–

Structure (SMILES),Increase in ear thickness (Mus musculus [1]),inhibition in vivo at 50 mg/kg (Mus musculus [1]) [%],Increase in ear thickness (Mus musculus [2]),inhibition in vivo at 400 mg/kg (Mus musculus [2]) [%],other results
Nc1cccc(-c2cn3c(n2)sc2ccccc23)c1,4.1 1/100mm,22.6,4.3 1/100mm,18.9,–
O=C(O)c1ccc(-c2cn3c(n2)sc2ccccc23)cc1,3.8 1/100mm,33.3,2.9 1/100mm,49.1,–
Clc1cccc(-c2cn3c(n2)sc2ccccc23)c1,5 1/100mm,3.8,5.8 1/100mm,-11.5,–
Clc1ccccc1-c1cn2c(n1)sc1ccccc12,5 1/100mm,3.8,6.3 1/100mm,-21.2,–
Oc1cc(O)cc(-c2cn3c(n2)sc2ccccc23)c1,5.8 1/100mm,-26.1,3.6 1/100mm,21.7,–
Cc1ccc(-c2cn3c(n2)sc2ccccc23)cc1,5.8 1/100mm,-11.5,–,–,Increase in ear thickness (Mus musculus [7]): 5.3 1/100mm; inhibition in vivo at 400 mg/kg (Mus musculus [7]): -1.9%
COc1ccc(-c2cn3c(n2)sc2ccccc23)cc1,5.3 1/100mm,-1.9,4.6 1/100mm,11.5,–
O=[N+]([O-])c1ccc(-c2cn3c(n2)sc2ccccc23)cc1,5.4 1/100mm,21.7,5 1/100mm,27.5,–
Oc1cccc(-c2cn3c(n2)oc2ccccc23)c1,2.6 1/100mm,18.8,2.9 1/100mm,9.4,–
COC(=O)c1ccc(-c2cn3c(n2)sc2ccccc23)cc1,6 1/100mm,-5.3,4.9 1/100mm,14,–
COC(=O)c1cccc(-c2cn3c(n2)sc2ccccc23)c1,1.9 1/100mm,64.2,1.9 1/100mm,64.2,–
COc1ccc(-c2cn3c(n2)sc2ccccc23)cc1O,4.9 1/100mm,7.5,4.6 1/100mm,13.2,–
Cc1ccc(-c2cn3c(n2)sc2ccccc23)cc1[S+](C)[O-] (stereo not given),–,–,–,–,Increase in ear thickness (Mus musculus [5]): 1.9 1/100mm; inhibition in vivo at 200 mg/kg (Mus musculus [5]): 53.7%; Increase in ear thickness (Mus musculus [6]): 3.9 1/100mm; inhibition in vivo at 25 mg/kg (Mus musculus [6]): 4.9%
COc1ccc2c(c1)sc1nc(-c3cccc(O)c3)cn12,4.8 1/100mm,-20,4.9 1/100mm,-22.5,–
Oc1cc(-c2cn3c(n2)sc2ccccc23)ccc1Cl,2.4 1/100mm,44.2,3.7 1/100mm,14,–
COC(=O)c1cccc(-c2cn3c(n2)sc2cc(O)ccc23)c1,3.8 1/100mm,7.3,5.1 1/100mm,-24.4,–
O=C(O)c1cccc(-c2cn3c(n2)sc2ccccc23)c1,2.8 1/100mm,34.9,3.2 1/100mm,25.6,–
Clc1ccc(-c2cn3c(n2)sc2ccccc23)cc1,4.8 1/100mm,30.4,5.9 1/100mm,14.5,–
Fc1ccc(-c2cn3c(n2)sc2ccccc23)cc1,5 1/100mm,-3.8,5.9 1/100mm,-13.5,–
O=CNc1cccc(-c2cn3c(n2)sc2ccccc23)c1,–,–,–,–,Increase in ear thickness (Mus musculus [5]): 2.2 1/100mm; inhibition in vivo at 200 mg/kg (Mus musculus [5]): 48.8%; Increase in ear thickness (Mus musculus [6]): 2.6 1/100mm; inhibition in vivo at 25 mg/kg (Mus musculus [6]): 39.5%
COc1ccc2nc(NC(=O)Nc3ccccc3)sc2c1 [FRENTIZOLE],3.5 1/100mm,42.6,–,–,–
